# Earlier results in patent US12636242B2, “Increased solubilization of diethylamino hydroxybenzoyl hexyl benzoate” (DSM IP ASSETS B.V., priority 2020, dated 2026).
# Read-outs that look alike come from different tables or passages of the source.
# [1] = listed as Diethylamino hydroxybenzoyl hexyl benzoate
structure (smiles),measurement,setting,value
"CCCCCCOC(=O)c1ccccc1C(=O)c1ccc(N(CC)CC)cc1O [UV-filter of the formula (I), diethylamino hydroxybenzoyl hexyl benzoate]","Solubility in esters and alcohols (ethyl hexyl-benzoate, ethanol)",,very soluble
same,"Solubility in esters and alcohols (ethyl hexyl-benzoate, ethanol)",[1],moderate solubility
same,Solubility in water and alkanes,,insoluble
same,Solubility in water and alkanes,[1],very low
